What was measured:
[1] = Pharmacokinetic study after single IV and oral gavage dose, plasma by LC-MS/MS; details: mice
Method: (§2) The PK parameters of NP-G2-044 were assessed following a single intravenous (IV) and single oral (PO) gavage dose administration to mice. Blood samples were collected pre-dose, and 3, 10, 30 min, 1, 1.5, 3, 6, 9, 24, 32, or 48 h after dosing. The plasma samples were then extracted and the concentrations of NP-G2-044 were determined by LC-MS/MS.
(§3) The concentrations of NP-G2-044 in plasma were determined using high performance liquid chromatography with tandem mass spectrometry (LC-MS/MS). All blood samples were transferred into a commercial tube containing potassium (K2) EDTA (ethylene diaminetetraacetic acid) and were processed for plasma. Samples were centrifuged (3000× g for 10 min at 2 to 8 °C) within one hour of collection. The assays used a Sciex API 4000 detector and nifedipine as an internal standard. The calibration ranges for NP-G2-044 were from 5.00 to 5000 ng/mL. The plasma concentration of NP-G2-044 in mice was subjected to a non-compartmental pharmacokinetic analysis by using the Phoenix WinNonlin software (version 6.3, Pharsight, Mountain View, CA, USA). The nominal dose levels and nominal sampling times were used in the calculation of all pharmacokinetic parameters. The linear/log trapezoidal rule was applied in obtaining the PK parameters.

[2] = system: KARPAS 299 lymphoma cells; assay: Cell growth sensitivity, KARPAS 299; type: cell-based
[3] = system: NCI-H660 human neuroendocrine prostate cancer cells; assay: Boyden chamber cell migration assay; type: cell-based; details: about twenty hours, 10% serum, read-out: IC50, tumor cell migration
Description: Cells were stained with crystal violet staining solution, and cells on the upper side of the insert were removed with a cotton swab.

[4] = system: HT cells; assay: Cell growth assay, HT; details: HT cells in culture, 4 days
Method: (§4) We then extended our search to other types of lymphoma cells. […] Both U2932 and Ly10 cells are ABC-subtype DLBCLs, and HT cells are diffuse mixed lymphoma.
(§5) For NP-G2-044 dose-dependent studies, 1 × 10^5 Ly10, U2932, or HT cells were seeded in a 12- or 24-well plate on day 0. A total of 1, 3, 10, 30, or 100 μM NP-G2-044 or control solvent was added to the plates. Cells were collected and counted on day 4. For time-dependent studies, 1 × 10^5 Ly10, U2932, or HT cells were seeded in a 12- or 24-well plate on day 0. A total of 30 μM NP-G2-044, 5 μM LY2409881, 30 μM NP-G2-044 plus 5 μM LY2409881, or control solvent was added to the plates. Cells were collected and counted on Days 2 and 4. […] The cell growth index was expressed as the fold changes of cell numbers over the starting cell number. For these assays, the old medium was changed with a fresh medium containing the control solvent or the inhibitors every two days.

[5] = in vivo; details: mouse, plasma
Method: as §2, §3

[6] = system: Ly1 lymphoma cells; assay: Cell growth sensitivity, Ly1; type: cell-based
[7] = Stability in plasma samples during bioanalysis; type: physicochemical; details: after freeze-thaw, and during storage, processing and analysis
Method: The concentrations of NP-G2-044 in plasma were determined using high performance liquid chromatography with tandem mass spectrometry (LC-MS/MS). All blood samples were transferred into a commercial tube containing potassium (K2) EDTA (ethylene diaminetetraacetic acid) and were processed for plasma. Samples were centrifuged (3000× g for 10 min at 2 to 8 °C) within one hour of collection. The assays used a Sciex API 4000 detector and nifedipine as an internal standard. The calibration ranges for NP-G2-044 were from 5.00 to 5000 ng/mL.

[8] = system: MDA-MB-468 triple-negative breast cancer cells; assay: Cell growth assay, MDA-MB-468; type: cell-based; details: MDA-MB-468 cells in culture, 10% serum
[9] = system: NCI-H660 human neuroendocrine prostate cancer cells
Method: To investigate the effect of NP-G2-044 on the overall survival of mice bearing NCI-H660 tumors, NCI-H660 tumor cells were injected into the prostate of male NSG mice. NCI-H660 tumor-bearing mice were randomized into two groups. In the control group, the vehicle solvent was given (marked as the “control” group) (Figure 3F). In the second group, the mice were treated with NP-G2-044 (5 days per week by an oral gavage). NP-G2-044 treatment started on Day 7.
Human neuroendocrine prostate cancer NCI-H660 cells (1 × 10^5) suspended in PBS were injected into the prostate of male NSG mice (6- to 8-week old from the Jackson Lab) on day 0 as previously described [56]. Briefly, the abdomen was cleaned with iodine solution, and a 1-cm midline incision was created to expose the prostate gland. A 29-gauge needle and a 1-mL disposable syringe were used for the injection of the cell suspension. The needle was inserted into the middle portion of the right anterior lobe, and then was directed towards the cranial portion of the lobe. The abdominal wound was closed in 2 layers with surgical sutures. Starting on Day 7, NP-G2-044 or the control solvent was given once a day for 5 days a week by oral gavage. […] The death of the mice was used as the endpoint.

[10] = system: U2932 cells; assay: Cell growth assay, U2932; details: U2932 cells in culture, 4 days
Method: as §4, §5

[11] = system: NF-κB nuclear translocation in Ly10 cells; assay: p65 (NF-κB) nuclear translocation, Western blotting, Ly10; type: cell-based; details: 30 µM, 16 h
[12] = system: NF-κB nuclear translocation in U2932 cells; assay: p65 (NF-κB) nuclear translocation, Western blotting, U2932; type: cell-based; details: 30 µM, 16 h
Method: We treated U2932 cells with or without NP-G2-044, and measured the potential effects of NP-G2-044 on various pathways critical for lymphoma cell growth.
The lymphoma cells were plated in 10-cm dish. After culture for 24 h, cells were incubated in serum-free medium for 16 h. Cells were then incubated in growth medium with 30 µM NP-G2-044 or dissolvent for 16 h, followed by collecting whole cell lysates or nuclear extracts as previously described.

[13] = system: HT cells; assay: Soft-agar colony formation assay, HT; type: cell-based; details: 14 days, dosage-dependent
Method: (§1) A total of 1 × or 2 ×10^4 cells were suspended in 0.5 mL of 0.3% low melting point agar (Merck KGaA, Darmstadt, Germany) in RPMI-1640 or DMEM containing 10% FBS and control solvent or the inhibitors. This suspension was overlaid on pre-solidified with 0.6% agar in the same medium in 24-well plates as previously described. Normal growth medium containing control solvent or the inhibitors was gently layered over the cultures every 4 days for 14 days. The colonies were stained with 0.1% crystal violet for 1 h at room temperature and counted under a microscope.

[14] = system: U2932 cells; assay: Soft-agar colony formation assay, U2932; type: cell-based; details: 14 days, dosage-dependent
Method: as §1

[15] = system: 4T1 triple-negative breast cancer cells; design: method as in PMID 26081695, PMID 27071719; details: 4T1 cells; cited from earlier work
[16] = system: HCC38 triple-negative breast cancer cells; assay: Cell growth assay, HCC38; type: cell-based; details: HCC38 cells in culture, 10% serum

Cc1occc1C(=O)Nc1nn(Cc2ccc(C(F)(F)F)cc2)c2ccccc12 [NP-G2-044]
Vd ([1]; IV, 20 mg/kg): 9.32 ± 1.35 L/kg | oral bioavailability (based on AUC0–t) ([1]; oral 20 to 100 mg/kg): 34–39% | growth sensitivity [2]: insensitive | IC50 [3]: 3 to 5 µM | effect on cell growth [4]: inhibitory effect | AUC(0-inf) ([5]; iv, 20 mg/kg): 7290 ± 1850 ng·h/mL | AUC(0-t) ([5]; iv, 20 mg/kg): 7150 ± 1750 ng·h/mL | C0 ([5]; iv, 20 mg/kg): 11300 ± 3840 ng/mL | MRT inf ([5]; iv, 20 mg/kg): 3.34 ± 0.68 h | MRT last ([5]; iv, 20 mg/kg): 2.81 ± 0.36 h | Vd ([5]; iv, 20 mg/kg): 9.3 L/kg | clearance ([5]; iv, 20 mg/kg): 48 ± 13.4 mL/min/kg | half-life ([5]; iv, 20 mg/kg): 5.45 ± 1.58 h | Tmax ([5]; po): 0.8 to 6 h | AUC(0-inf) ([5]; po, 20 mg/kg): 2570 ± 568 ng·h/mL | AUC(0-t) ([5]; po, 20 mg/kg): 2550 ± 575 ng·h/mL | Cmax ([5]; po, 20 mg/kg): 541 ± 176 ng/mL | MRT inf ([5]; po, 20 mg/kg): 6.46 ± 1.44 h | MRT last ([5]; po, 20 mg/kg): 6.16 ± 1.36 h | Tmax ([5]; po, 20 mg/kg): 0.83 ± 0.58 h | bioavailability ([5]; po, 20 mg/kg): 35.3% | half-life ([5]; po, 20 mg/kg): 4.36 ± 0.46 h | AUC(0-inf) ([5]; po, 50 mg/kg): 6210 ± 1650 ng·h/mL | AUC(0-t) ([5]; po, 50 mg/kg): 6190 ± 1650 ng·h/mL | Cmax ([5]; po, 50 mg/kg): 678 ± 258 ng/mL | MRT inf ([5]; po, 50 mg/kg): 7.54 ± 0.85 h | MRT last ([5]; po, 50 mg/kg): 7.4 ± 0.75 h | Tmax ([5]; po, 50 mg/kg): 4.17 ± 3.18 h | bioavailability ([5]; po, 50 mg/kg): 34.1% | half-life ([5]; po, 50 mg/kg): 3.58 ± 0.43 h | AUC(0-inf) ([5]; po, 100 mg/kg): 14300 ± 2390 ng·h/mL | AUC(0-t) ([5]; po, 100 mg/kg): 14300 ± 2400 ng·h/mL | Cmax ([5]; po, 100 mg/kg): 1450 ± 157 ng/mL | MRT inf ([5]; po, 100 mg/kg): 8.4 ± 0.41 h | MRT last ([5]; po, 100 mg/kg): 8.33 ± 0.38 h | Tmax ([5]; po, 100 mg/kg): 6 ± 3 h | bioavailability ([5]; po, 100 mg/kg): 39.2% | half-life ([5]; po, 100 mg/kg): 4.39 ± 1.56 h | growth sensitivity [6]: insensitive | stability [7]: stable | growth sensitivity [8]: sensitive | increase of median overall survival ([9]; male NSG mice, oral gavage 5 days per week from Day 7, compared with control group, log-rank p < 0.001): 50% | tolerability of dosage regimen ([9]; mouse, in vivo, po): well tolerated with no signs of overt toxicity | effect on cell growth [10]: inhibitory effect | nuclear translocation of the p65 subunits [11]: also observed | nuclear translocation of the p65 subunits [12]: decreased | number of growing colonies [13]: decreased the number of growing colonies | number of growing colonies [14]: decreased the number of growing colonies | induction of apoptosis [15]: did not induce the apoptosis | growth sensitivity [16]: sensitive

Source: article PMC7466159, “Anti-Metastasis Fascin Inhibitors Decrease the Growth of Specific Subtypes of Cancers” (Cancers, 2020)
